We go through four compounds from patent US4906622A, “Optically active 2-chloro-12-(3-dimethylamino-2-methyl-propyl)-12H-dibenzo[d.g] [1,3,6] dioxazocines and a process for the preparation thereof” (Egis Gyogyszergyar, priority 1985, dated 1990).

The conditions of data set [1]: cited from earlier work.
Data set [2] is described as follows: Acute toxicity on mice with peroral treatment. Type of data set: in vivo. The settings on record: mouse, in vivo, po. The procedure:
(§1) The hydrochloride of the racemic compound, the hydrochloride of the (-)-isomer [compound of Example 6; the salt has (+) rotation] and the hydrochloride of the (+)-isomer [compound of Example 7; the salt has (-) rotation] were tested for acute toxicity on mice with peroral treatment and for the inhibition of tremor induced by tremorine (the latter test characterizes the action against Parkinson's disease). In the latter case, the inhibition of tremor induced by tremorine [1,1'-(2-butynylene)-dipyrrolidine] administered intraperitoneally at a dosage of 20 mg/kg was tested on mice as described in Science, 124, 79 (1956). The compound to be examined was given perorally to a population of 50 mice one hour prior to the administration of tremorine, and the tremor developed was evaluated 45 minutes after the administration of tremorine.
(§2) To make sure that no contradiction exists between the data of Table I on the one hand, and the data of U.S. Pat. No. 4,208,410 on the other hand, the above tests was repeated using a population of 500 mice for each compound tested.

The subject of data set [3] is tremor induced by tremorine. In words: animal or person. Type of data set: in vivo, mice. The conditions noted are these: for ED50: Mus musculus; for ED50 / T.I. (therapeutic index) (Table 1) / T.I. (therapeutic index) (Table 2): po; for ED50 p.o., inhibition of tremor induced by tremorine (Table 1) / ED50 p.o., inhibition of tremor induced by tremorine (Table 2): hydrochloride. The procedure:
as §1
Since a lower population of mice was used, less exact values of ED50 were obtained for the compounds tested. Thus, the therapeutic index calculated for the racemic compound is lower by a factor of about 2.4 than the value given in U.S. Pat. No. 4 4,208,410. However, the data obtained under identical test circumstances on a relatively low number of test animals can be compared with each other.
as §2

Data set [4] is described as follows: Local anaesthetic activity. It counts as in vivo. The conditions noted are these: primary tests / detailed tests.
Another data set concerns mice. In words: Acute toxicity on mice with peroral treatment. Type of data set: in vivo. The conditions noted are these: for LD50 p.o. (Table 1): Table 1, hydrochloride; for LD50 p.o. (Table 2): repeated test, population of 500 mice for each compound, hydrochloride. The procedure:
as §1, §2

The mark [5] stands for this setting: population of 500 mice, U.S. Pat. No. 4,208,410.
[6] abbreviates: p.o. one hour before tremorine 20 mg/kg i.p., evaluated 45 minutes after tremorine, population of 50 mice.
Setting [7] is: repeated test, population of 500 mice for each compound.

Structures can show the parent of a compound that is named as a salt. Where two headings read alike, the source gives them in different places.

Usually LD50 stands for the dose at which mortality reaches 50%. In general, ED50 refers to the midpoint of the dose-response relation.

As for `CC(CN(C)C)CN1c2ccccc2OCOc2ccc(Cl)cc21` (racemic) [2-chloro-12-(3-dimethylamino-2-methylpropyl)-12H-dibenzo[d,g][1,3,6]-dioxazocine], in data set [1] (known from U.S. Pat. No. 4,208,410), the “local anaesthetic and antiparkinsonic activity” value is “has local anaesthetic and antiparkinsonic activity”. Moreover, in data set [1] (setting [5]), the “ED50, antiparkinsonic activity” value is 11 mg/kg and the therapeutic index was 25.

In the case of `CC(CN(C)C)CN1c2ccccc2OCOc2ccc(Cl)cc21` (racemic) [racemic, reference compound], the median lethal dose (LD50) stood at 270 mg/kg in data set [2] (Table 1, read-out: LD50 p.o. (Table 1)) and 270 mg/kg in data set [2] (repeated test, population of 500 mice for each compound, read-out: LD50 p.o. (Table 2)). Besides, the ED50 in data set [3] (p.o. one hour before tremorine 20 mg/kg i.p., evaluated 45 minutes after tremorine, population of 50 mice, read-out: ED50 p.o., inhibition of tremor induced by tremorine (Table 1)) was 25 mg/kg; in data set [3] (repeated test, population of 500 mice for each compound, read-out: ED50 p.o., inhibition of tremor induced by tremorine (Table 2)) it was 10.5 mg/kg. Also, the “factor by which the therapeutic index is lower than the value given in U.S. Pat. No. 4,208,410” value in data set [3] (mouse, in vivo) is given as “about 2.4”. Also, the “T.I. (therapeutic index) (Table 1)” value in data set [3] (mouse, in vivo) was determined as 10.8. For the same compound, the “T.I. (therapeutic index) (Table 2)” value in data set [3] (mouse, in vivo) is on record as 25.7. The local anaesthetic activity entry in data set [4] is recorded as “has local anaesthetic activity, detailed tests have not shown any therapeutically valuable effect”.

With `CC(CN(C)C)CN1c2ccccc2OCOc2ccc(Cl)cc21` (single isomer, unassigned; (+)) [Example 6, (+)-2-chloro-12-(3-dimethylamino-2-methylpropyl)-12H-dibenzo[d,g][1,3,6]dioxazocine hydrochloride], in the data set with mice, the “LD50 p.o. (Table 1)” value was determined as 160 mg/kg and the “LD50 p.o. (Table 2)” value came to 160 mg/kg. For the same compound, in data set [3] (mouse, in vivo), the “T.I. (therapeutic index) (Table 1)” value came out at 72.7 and the “T.I. (therapeutic index) (Table 2)” value was determined as 168.4. The “ED50 p.o., inhibition of tremor induced by tremorine (Table 1)” value in data set [3] (setting [6]) is 2.2 mg/kg. Besides, in data set [3] (setting [7]), the “ED50 p.o., inhibition of tremor induced by tremorine (Table 2)” value was determined as 0.95 mg/kg.

For `CC(CN(C)C)CN1c2ccccc2OCOc2ccc(Cl)cc21` (single isomer, unassigned; (-)) [Example 7, (-)-2-Chloro-12-(3-dimethylamino-2-methylpropyl)-12H-dibenzo[d,g][1,3,6]dioxazocine hydrochloride], in the data set with mice, the “LD50 p.o. (Table 1)” value was found to be 460 mg/kg and the “LD50 p.o. (Table 2)” value is on record as 460 mg/kg. In data set [3] (mouse, in vivo), the “T.I. (therapeutic index) (Table 1)” value came out at 65.7 and the “T.I. (therapeutic index) (Table 2)” value was determined as 160.8. Further, in data set [3] (setting [6]), the “ED50 p.o., inhibition of tremor induced by tremorine (Table 1)” value is given as 7 mg/kg. Moreover, in data set [3] (setting [7]), the “ED50 p.o., inhibition of tremor induced by tremorine (Table 2)” value was determined as 2.86 mg/kg.
